These results are taken from publication PMC4521925, “17β-Hydroxysteroid Dehydrogenase Type 2 Inhibition: Discovery of Selective and Metabolically Stable Compounds Inhibiting Both the Human Enzyme and Its Murine Ortholog” (PLoS ONE, 2015).

Structures are written as SMILES. Like-named read-outs stand apart in the source and are kept apart here. A value given as a limit tells only on which side of the number the result lay.

The target in data set [1] is T1, h17β-HSD2 (Homo sapiens, UniProt P37059).
T1 sequence (P37059 1-387): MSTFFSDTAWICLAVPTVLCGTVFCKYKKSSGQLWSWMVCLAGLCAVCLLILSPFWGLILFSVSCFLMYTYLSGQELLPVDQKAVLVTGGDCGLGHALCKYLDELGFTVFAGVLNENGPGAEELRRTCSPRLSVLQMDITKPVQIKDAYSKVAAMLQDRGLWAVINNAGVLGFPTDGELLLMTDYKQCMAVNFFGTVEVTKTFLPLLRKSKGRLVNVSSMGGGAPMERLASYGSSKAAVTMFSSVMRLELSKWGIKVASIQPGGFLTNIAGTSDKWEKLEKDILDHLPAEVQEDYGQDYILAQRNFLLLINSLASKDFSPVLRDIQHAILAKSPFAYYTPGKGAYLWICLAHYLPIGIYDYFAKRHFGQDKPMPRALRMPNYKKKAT
Set-up: from tissue; host or cells: human placenta, microsomal fraction. The following applies: human placental microsomal fraction, substrate E2 [500 nM], cofactor NAD+ [1500 μM]; previously described inhibitors; cited from earlier work.

In a further data set the target is T2, m17β-HSD2 (Mus musculus, UniProt P51658).
T2 construct: The microsomal fraction (m17β-HSD2) was obtained from mouse liver as described for h17β-HSD2; tissue Pharmacelsus GmbH (mouse livers); host or cells: mouse liver, microsomal fraction
T2 sequence (P51658 1-381): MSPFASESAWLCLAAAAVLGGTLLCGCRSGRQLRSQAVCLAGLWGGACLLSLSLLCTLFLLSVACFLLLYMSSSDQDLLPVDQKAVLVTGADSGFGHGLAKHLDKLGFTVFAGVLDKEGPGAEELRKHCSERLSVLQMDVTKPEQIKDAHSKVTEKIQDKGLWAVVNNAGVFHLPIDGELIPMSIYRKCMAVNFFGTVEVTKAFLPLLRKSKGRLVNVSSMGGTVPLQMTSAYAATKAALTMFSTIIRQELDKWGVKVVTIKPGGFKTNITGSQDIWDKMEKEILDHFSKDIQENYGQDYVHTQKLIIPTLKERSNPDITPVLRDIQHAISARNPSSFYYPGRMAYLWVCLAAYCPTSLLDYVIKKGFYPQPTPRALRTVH
Description: Inhibition of m17β-HSD2 in cell-free assay. Type of data set: biochemical. The following applies: for % inh. at 1 μM m17β-HSD2: mouse liver microsomal fraction, substrate E2 [500 nM], cofactor NAD+ [1500 μM], Table 1. The method, then:
(§1) h17β-HSD2, h17β-HSD1, m17β-HSD2 and m17β-HSD1 cell-free assays were performed similarly, by incubating enzyme, tritiated substrate, cofactor and inhibitor, according to described procedures.
The microsomal fraction (m17β-HSD2) was obtained from mouse liver as described for h17β-HSD2. Inhibitory activities were evaluated by a method identical to the one described for the human enzyme.
(§2) Inhibitory activities were evaluated following an established method with minor modifications. Briefly, the enzyme preparation was incubated with NAD^+ [1500 μM] in the presence of potential inhibitors at 37C in a phosphate buffer (50 mM) supplemented with 20% of glycerol and EDTA 1mM. Inhibitor stock solutions were prepared in DMSO. Final concentration of DMSO was adjusted to 1% in all samples. […] After 20 min, the incubation was stopped with HgCl2 and the mixture was extracted with ether. After evaporation, the steroids were dissolved in acetonitrile/water (45:55). […] Detection and quantification of the steroids were performed using a radioflow detector (Berthold Technologies, Bad Wildbad). […] Each value was calculated from at least two independent experiments.

For the next data set, the target named is T3, ERα (Homo sapiens, UniProt P03372).
T3 sequence (P03372 1-595): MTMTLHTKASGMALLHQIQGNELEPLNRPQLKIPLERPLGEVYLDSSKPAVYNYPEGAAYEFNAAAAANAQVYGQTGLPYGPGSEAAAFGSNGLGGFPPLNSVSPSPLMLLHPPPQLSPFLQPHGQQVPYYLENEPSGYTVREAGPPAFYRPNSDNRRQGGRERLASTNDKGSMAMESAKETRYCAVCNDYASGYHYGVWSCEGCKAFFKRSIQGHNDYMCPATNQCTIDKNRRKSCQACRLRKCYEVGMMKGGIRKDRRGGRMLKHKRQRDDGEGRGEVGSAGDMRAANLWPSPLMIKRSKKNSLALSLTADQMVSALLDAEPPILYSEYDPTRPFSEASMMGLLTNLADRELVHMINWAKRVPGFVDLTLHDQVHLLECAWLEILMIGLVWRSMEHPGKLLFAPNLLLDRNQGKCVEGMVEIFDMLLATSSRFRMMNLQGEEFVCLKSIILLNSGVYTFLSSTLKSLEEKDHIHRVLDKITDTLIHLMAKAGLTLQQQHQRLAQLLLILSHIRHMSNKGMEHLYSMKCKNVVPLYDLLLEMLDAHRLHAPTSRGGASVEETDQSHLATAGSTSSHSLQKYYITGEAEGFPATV
Description: Estrogen receptor affinity in a cell-free assay (ERα). The following applies: 1000-fold excess relative to E2; recombinant human ERα. Type of data set: binding. As for the experimental part:
(§3) The binding affinity of selected compounds to ERα and ERβ was determined according to the recommendations of the US Environmental Protection Agency (EPA) by their Endocrine Disruptor Screening Program (EDSP)[24] using recombinant human proteins.
(§4) The potential inhibitors were dissolved in DMSO (5% final concentration). […] After incubation, ligand-receptor complexes were selectively bound to hydroxyapatite (83.5 g/LinTE-buffer). The bound complex was washed three times and resuspended in ethanol. For radiodetection, scintillator cocktail (Quickszint 212, Zinsser Analytic, Frankfurt) was added and samples were measured in a liquid scintillation counter (1450 LSC & Luminescence Counter, Perkin Elmer).
(§5) After the assay was established and validated, a modification was made to increase throughput.

A further data set addresses ERβ (Homo sapiens, UniProt Q92731). As to the kind of experiment: Estrogen receptor affinity in a cell-free assay (ERβ). The following applies: 1000-fold excess relative to E2; recombinant human ERβ. Type of data set: binding. As for the experimental part: as §3, §4, §5
For the next data set, the target named is T4, h17β-HSD1 (Homo sapiens, UniProt P14061).
T4 construct: h17β-HSD1 was obtained after precipitation with ammonium sulfate from the cytosolic fraction; from tissue; host or cells: human placenta, cytosolic fraction
T4 sequence (P14061 1-328): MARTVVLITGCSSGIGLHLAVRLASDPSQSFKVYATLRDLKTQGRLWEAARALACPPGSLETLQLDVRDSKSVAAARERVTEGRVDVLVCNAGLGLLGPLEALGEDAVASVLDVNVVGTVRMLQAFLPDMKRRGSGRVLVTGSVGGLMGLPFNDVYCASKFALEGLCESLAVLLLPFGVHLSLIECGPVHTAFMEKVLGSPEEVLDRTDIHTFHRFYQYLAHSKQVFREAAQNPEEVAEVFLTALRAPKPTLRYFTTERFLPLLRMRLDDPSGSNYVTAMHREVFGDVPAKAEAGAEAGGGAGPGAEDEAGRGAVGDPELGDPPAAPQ
Description: Inhibition of h17β-HSD1 in cell-free assay. Type of data set: biochemical. Particulars: human placental cytosolic fraction, substrate E1 [500 nM], cofactor NADH [500 μM]. The method, then:
as §1
(§6) Cytosolic (h17β-HSD1) and microsomal (h17β-HSD2) fractions were obtained from human placenta according to previously described procedures. Fresh tissue was homogenized and the enzymes were separated from the mitochondria, cell membrane. Nucleus and other rests by fractional centrifugation at 1000 g, 10.000 g and 150.000 g. The pellet fraction containing the microsomal h17β-HSD2 was used for the determination of h17β-HSD2 inhibition, while h17β-HSD1 was obtained after precipitation with ammonium sulfate from the cytosolic fraction for use of testing of h17β-HSD1 inhibition. Aliquots containing h17β-HSD1 or h17β-HSD2 were stored frozen.
The 17β-HSD1 inhibition assay was performed similarly to the h17β-HSD2 test. The human cytosolic enzyme was incubated with NADH [500 μM] while the mouse recombinant enzyme was reacted with NADPH [500 μM].Test compound and a mixture of unlabelled- and [^3H]-E1 (final concentration: 500 nM, 0.15 μCi) were added and mixed for 10 min at 37°C. Further treatment of the samples and HPLC separation was carried out as mentioned above for h17β-HSD2.

Data set [2] concerns the target T1, h17β-HSD2. As to the kind of experiment: Inhibition of h17β-HSD2 in cell-free assay. Type of data set: biochemical. Set-up: from tissue; host or cells: human placenta, microsomal fraction. The following applies: for s.f. (selectivity factor) = IC50(17β-HSD1)/IC50(17β-HSD2): human enzymes, cell-free. The method, then:
as §1, §6, §2

Data set [3] can be described thus: Metabolic stability in a cell-free assay (liver S9 fraction). Type of data set: in vitro ADME. The following applies: pooled liver S9 fraction; human liver S9 fraction 1 mg/ml, NADPH regenerating system, UDPGA, PAPS, 37°C; inhibitor 1 μM; read-out: Inhibitor t1/2. As for the experimental part:
Compounds 7a, 8a, 16a, 19a, 22a, 27a and 27 were tested according to established method[33–35]For evaluation of phase I and II metabolic stability 1 μM compound was incubated with 1 mg/ml pooled mammalian liver S9 fraction (BD Gentest), 2 mM NADPH regenerating system, 1 mM UDPGA and 0.1 mM PAPS at 37°C for 0, 5, 15 and 60 minutes at a final volume of 100 μL. The incubation was stopped by precipitation of S9 enzymes with 2 volumes of cold acetonitrile containing internal standard. Concentration of the remaining test compound at the different time points was analyzed by LC-MS/MS and used to determine half-life (t1/2).

Sequence of ERβ (Q92731 whole entry): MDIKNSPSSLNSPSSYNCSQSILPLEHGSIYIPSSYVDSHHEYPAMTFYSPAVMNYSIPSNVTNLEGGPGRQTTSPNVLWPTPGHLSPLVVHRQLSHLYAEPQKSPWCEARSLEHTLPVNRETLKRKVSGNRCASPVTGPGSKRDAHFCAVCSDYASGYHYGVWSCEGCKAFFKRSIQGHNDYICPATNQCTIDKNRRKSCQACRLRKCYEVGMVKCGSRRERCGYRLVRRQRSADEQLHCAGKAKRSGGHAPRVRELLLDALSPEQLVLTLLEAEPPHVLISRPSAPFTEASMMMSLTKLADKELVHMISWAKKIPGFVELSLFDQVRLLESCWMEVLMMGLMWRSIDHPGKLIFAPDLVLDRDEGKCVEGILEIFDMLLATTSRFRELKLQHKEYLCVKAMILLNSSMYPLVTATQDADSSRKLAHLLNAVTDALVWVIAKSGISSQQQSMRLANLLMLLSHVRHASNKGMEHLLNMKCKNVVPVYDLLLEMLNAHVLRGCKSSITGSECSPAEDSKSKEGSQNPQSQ

`COc1cccc(N(C)C(=O)c2ccc(-c3cccc(OC)c3F)s2)c1` [Compound 1j]: the half-inhibitory concentration (IC50) (as a rule, the concentration needed to halve the response being measured) at h17β-HSD2 [1] is 62 nM. For the same compound, the “% inh. at 1 μM m17β-HSD2” value on m17β-HSD2 was found to be 26%.
In the case of `CN(Cc1cccc(O)c1)C(=O)c1cccc(-c2cccc(O)c2)c1` [Compound 4e], on h17β-HSD2 [1], the IC50 was 640 nM. For the same compound, the “% inh. at 1 μM m17β-HSD2” value on m17β-HSD2 was found to be 29%.
Consider `COc1cccc(N(C)C(=O)c2ccc(-c3cccc(N(C)C)c3)s2)c1` [Compound 1g], for which the IC50 at h17β-HSD2 [1] is 170 nM. In addition, the “% inh. at 1 μM m17β-HSD2” value at m17β-HSD2 amounted to 40%.
For `COc1cccc(-c2ccc(C(=O)N(C)c3cccc(OC)c3)cc2)c1` [Compound 7a, 3'-Methoxy-N-(3-methoxyphenyl)-N-methyl-[1,1'-biphenyl]-4-carboxamide], the melting point (in general, the temperature, or range, at which the solid turns liquid) was 131 to 134 °C. Moreover, on ERα, the “displacement of E2 from ERα” value was no more than 20%. Further, the “displacement of E2 from ERβ” value at ERβ was no more than 20%. The same compound yielded an IC50 against h17β-HSD1 of 6400 nM. Moreover, the IC50 against m17β-HSD2 stood at 290 nM. In addition, on h17β-HSD2 [2], it took 330 nM to reach half-maximal inhibition (IC50) and the “s.f. (selectivity factor) = IC50(17β-HSD1)/IC50(17β-HSD2)” value is given as 20.
Consider `COc1cccc(-c2cccc(C(=O)N(C)c3cccc(OC)c3)c2)c1` [Compound 4a], for which the concentration for half-maximal inhibition (IC50) at h17β-HSD2 [1] was 520 nM. In addition, the “% inh. at 1 μM m17β-HSD2” value at m17β-HSD2 is reported as 25%.
On to `COc1cccc(CN(C)C(=O)c2ccc(-c3cccc(C)c3F)cc2)c1` [Compound 25a, 2'-Fluoro-N-(3-methoxybenzyl)-N,3'-dimethyl-[1,1'-biphenyl]-4-carboxamide], for which, at ERα, the “displacement of E2 from ERα” value is recorded as no more than 20%. In data set [3], the half-life at 1 μM worked out at 1.72 h. Further, the “displacement of E2 from ERβ” value on ERβ is on record as no more than 20%. The compound further returned an IC50 at h17β-HSD1 of 87000 nM. Also, the inhibition at 1 µM at m17β-HSD2 (read-out: % inh. at 1 μM m17β-HSD2) was determined as 43%. Moreover, on h17β-HSD2 [2], inhibition was half-maximal at 310 nM (IC50) and the “s.f. (selectivity factor) = IC50(17β-HSD1)/IC50(17β-HSD2)” value was determined as 283.
